# Test results taken from patent US9060985B2, “Use of rosmarinic acid and the derivatives thereof to treat ciguatera” (priority 2009, dated 2015).
# Experiments:
# symptoms of ciguatera = conditions: cited from earlier work
# [1] = test system: neuroblastoma cell cultures; assay: Inhibition of the cytotoxicity caused by extracts of toxic loach or toxic giant clams on neuroblastoma cell cultures (MTT, with ouabain/veratridine); assay type: cell-based
# Method: The sample of salmon-pink loach (Ref15), supplied by the Louis Malardé Institute, was collected at Mururoa (Tuamotu Archipelago, French Polynesia). The sample of giant clam (GPS59) was collected at Raivavae (Austral Islands, French Polynesia). The toxicity of these two samples was confirmed beforehand on mice, by a cytotoxicity assay on neuroblastomas and radioligand assays with P-CTX-3.
# The samples are stored at 4° C. The rosmarinic acid was obtained from Sigma.
# 96-well plates are prepared with 50 000 cells in 100 μL of medium per well. The outer wells are not used, to avoid variations of response due to edge effects. The cells are incubated for 24 h at 37° C. with 5% CO2 to give them time to adhere.
# A mixture of ouabain (cardiac glycoside involved in cellular permeability, inhibiting the Na/K pump) and veratridine (polycyclic alkaloid which leads to persistent activation of the sodium channels), designated O/V hereinafter, in which the two active substances are present respectively at a final concentration of 0.33 and 0.033 mM in 20 μl, is added to the wells.
# Ouabain is an inhibitor of ATPase Na^+/K^+, and veratridine is an activator of the sodium channels. The combined action of these two products induces a raised intracellular level of sodium and causes a change in the morphology of the cells, which greatly reduces their viability. […]
# All the plates have a standard control of culture medium (cells only) and a control with cells in the presence of the O/V mixture. Rosmarinic acid is tested alone with the O/V mixture to record effects of cytotoxicity or of cellular proliferation as well as any interferences of coloration due to strong concentrations of products, which can lead to false positives in spectrophotometer readings. […]
# After incubation for 1.5 h, the formazan crystals that formed are dissolved with 150 μL of DMSO (dimethylsulfoxide) for each well. After homogenization, the plates are read with a UV plate reader at 490 nm. Then the data are transferred and processed using Excel® and analyzed with the GraphPad Prism® software (version 4).
# [2] = test system: voltage-dependent sodium channels; assay type: binding, rat
# mouse = conditions: cited from earlier work
# ciguatoxins = conditions: cited from earlier work
smiles,measurement,setting,value
"OC[C@@H](O)[C@@H](O)[C@H](O)[C@H](O)CO [mannitol, Mannitol]",effect on neurological and muscular disorders,symptoms of ciguatera; administered 48 to 72 hours after intoxication,capable of alleviating neurological and muscular disorders
same,effect on the symptoms of ciguatera,"symptoms of ciguatera; blind clinical trials, mannitol and a saline solution, after 24 hours","did not, however, show a beneficial effect"
"O=C(/C=C/c1ccc(O)c(O)c1)O[C@H](Cc1ccc(O)c(O)c1)C(=O)O [rosmarinic acid, (R)-a-[[3-(3,4-dihydroxyphenyl)-1-oxo-2E-propenyl]oxy]-3,4-dihydroxybenzenepropanoic acid]",IC50,"[1]; Neuroblastoma cell, neuroblastomas, toxic extracts, estimated, read-out: IC50 (concentration for 50% decrease in cellular mortality caused by ciguatoxins and associated toxins)",500 to 1000 µg/mL
same,concentration from which cellular viability is significantly increased,"[1]; toxic giant clam extract GPS59 at 100 μg/ml, O/V mixture",≥ 50 µg/mL
same,effect on cellular viability of neuroblastomas (cytotoxicity of toxic giant clam extract),"[1]; toxic giant clam extract GPS59 at 100 μg/ml, O/V mixture, rosmarinic acid 10 to 1000 μg/ml, 18 h, MTT",protective effect
same,IC50 (50% inhibition of interaction with [^3H]PbTx-3),[2],880 µg/mL
same,Ki,[2],1430 µM
same,measured radioactivity (replacement of tritiated brevetoxin on the sodium channels),[2],decrease in the measured radioactivity
same,toxicity,mouse; at 531 mg/kg i.v. in the mouse,does not display toxicity
same,LD50,mouse; intravenously (i.v.) in the mouse,531 mg/kg
C=C/C=C\CC[C@H]1O[C@H]2CC[C@@]3(C)O[C@H]4[C@@H](O)C[C@@]5(C)O[C@@H](CC/C=C(C)/C(C)=C/C=O)[C@@H](C)C[C@@H]5O[C@@H]4C[C@@H]3O[C@@H]2CC[C@@]1(C)O [brevenal],inhibition of neurotoxic effects induced by the ciguatoxins,ciguatoxins,powerful inhibitor
